Assay results as given in patent US11446270B2, “Leonurine crystal and use thereof in preparation of insulin sensitizer, hypoglycemic drug and lipid-lowering drug” (ZHUHAI HENGQIN NEW DISTRICT ZHONGZHU ZHENGTAI MEDICAL …, priority 2017, dated 2022).
“Also recorded” adds a separate entry of the source.

Experiments:
Sprague-Dawley male rats [1] = assay: Single dosage acute administration, insulin sensitivity test in rats; assay type: in vivo; conditions: rat, vs DMSO control
Method: Thirty-two Sprague-Dawley male rats (body weight 180-220 g) were randomly divided into 4 groups, gave control solvent and three different doses of leonurine crystal form A respectively. The control solvent group was given an equal volume of DMSO, and the treatment groups were administered with three doses of 30 mg/kg, 60 mg/kg and 120 mg/kg respectively, 8 rats per group, where the leonurine crystal form A was dissolved in DMSO at concentrations of 30 mg/ml, 60 mg/ml and 120 mg/ml respectively. The volume of solvent obtained per rat is one millilitre per kilogram of body weight. The route of administration is gavage, weighing before gavage, and taking blood from tail vein to measure blood glucose. Each rat was tested for insulin sensitivity 1 hour after administration of drugs or control solvent, the dose of insulin selected was 0.5 units per kilogram of body weight, intraperitoneal injection of insulin, blood glucose was measured before injection and at 15, 30, 60, 90, and 120 minutes after injection. The data were analyzed by SPSS 11.5 statistical software, and the results were expressed as mean ±standard error of the mean (mean±SEM), pairwise comparison between groups was examined by one-way analysis of variance (ANOVA), P<0.05 was considered significant difference between the groups.

rhesus monkey = assay: Model of rhesus monkey with hyperlipidemia, long-term administration; assay type: in vivo
[2] = Accelerated stability test of leonurine crystal forms; assay type: physicochemical; conditions: for Crystal stability: 70% RH, 10 days
From the text: In the invention, the dominant medicinal crystal form was also screened by the accelerated stability experimental method, and observed the transformation among the various crystal forms.

Sprague-Dawley male rats [3] = assay: Chronic continuous administration for 7 days, insulin sensitivity test in rats; assay type: in vivo; conditions: rat, vs control, listed as leonurine crystal form A
Method: Twenty Sprague-Dawley male rats (body weight 180-220 g) were randomly divided into 4 groups, give control solvent and three different doses of leonurine crystal form A respectively. The control solvent group was given an equal volume of DMSO, and the treatment groups were administered at three doses of 30 mg/kg, 60 mg/kg and 120 mg/kg respectively, 5 rats per group, where the leonurine crystal form A was dissolved in DMSO at concentrations of 30 mg/ml, 60 mg/ml and 120 mg/ml respectively. The volume of solvent used per rat is one millilitre per kilogram of body weight. The rats were administered intragastrically with the drugs or control solvent once a day for 7 consecutive days, and performing insulin sensitivity test on the 7th day. The rats were treated with the drugs or control solvent on the day of the test, and weighed before administration, then taking blood from tail vein to measure blood glucose. Each rat was tested for insulin sensitivity 1 hour after administration of the drugs or control solvent, and the rats were not fed food for 4 hours before the insulin sensitivity test to make them fasted but still given water. The insulin dose in the insulin sensitivity test is 0.75 units per kilogram of body weight, and insulin was injected through intraperitonealion. Blood glucose was measured before injection and at 15, 30, 60, 90, and 120 minutes after injection. The data were analyzed by SPSS statistical software (version 11.5), and the results were expressed as mean ±standard error of the mean (mean±SEM). Multiple group comparisons were tested by one-way analysis of variance (ANOVA). P<0.05 was considered as statistically significant.

New Zealand rabbits = assay: Carotid atherosclerotic plaque intima-media thickness (IMT) by high-frequency ultrasound in rabbit atherosclerosis model; assay type: in vivo; conditions: for intimal-medial thickness (IMT) at the largest carotid plaque: high fat diet 8 weeks, vs model group
Method: Forty-two male New Zealand rabbits weighed 2.0 to 2.5 kg were fed with normal diet to adapt to the housing environment for one week before experiment, and then the rabbits were fed with high fat diet (1% cholesterol; SF00-221 SpecialtyFeed Australia) for 8 weeks to establish the rabbit model of atherosclerosis. […] When the rabbits were started to give high fat diet, various drugs or vehicle (NC and MD groups) were simultaneously administered. The drug was administered once a day continuously for 8 weeks and weighed once a week to adjust the dose of drugs. Rabbits were caged in an air-conditioned room (24±1° C. room temperature and 55±5% air humidity) with 12 h light per day and had free access to water and were fed ad libitum. High-frequency ultrasound detection of carotid plaque: the high-frequency microscopy imaging system (Vevo770) was used to detect carotid atherosclerotic plaque at the end of the 8th week of the experiment. The rabbits were anesthetized with 3% pentobarbital sodium in the dose of 30 mg/kg. Using the RMV707B probe (resolution 30 MHz) to observe the carotid bifurcation plaque and measure the blood flow velocity on the carotid artery long axis section by two-dimensional ultrasound. Then adjust direction of the probe so that the angle between the probe and the carotid artery is less than 60° to obtain the long-axis view. The intima-media thickness (IMT) is measured at the maximum end-diastolic plaque. The measurement to detected IMT is taking the vertical distance between the lumen-intimal echo to the medial-outer membrane echo, and detecting the atherosclerotic plaque on the right common carotid artery bifurcation proximal. The carotid ultrasound images and the maximum IMT at the plaque were analyzed, and the morphology of atherosclerotic plaques was evaluated. The data were analyzed by Vevo770 microscopy imaging system software. All measurements were repeated twice in the same area and averaged.

ApoE knockout mice = assay: Serum lipids in hyperlipidemia ApoE knockout mice on high fat diet; assay type: in vivo; conditions: 4 weeks
Method: Fifteen C57BL/6J mice (male, 6-8 weeks) and seventy-five ApoE knockout mice (male, 6-8 weeks) were used for experiments. C57BL/6J mice were fed with normal diet, and ApoE knockout mice were fed for 1 week with a diet of normal/high fat diet ratio of 1/1.
Mice were weighed before administered drugs every week, where the dosage of the drug for mice is calculate according to the weight; and housed under 24±1° C. room temperature and 55±5% air humidity condition, and allowed enough food and water ad libitum. After the drug administration continuously for 4 weeks, the mice were anesthetized with pentobarbital sodium according to body weight. Blood (0.5 ml per mouse) was drawn from the inner canthus vein for hematology analysis. Hematology analysis: blood samples were let for standing for 2 h and centrifuged (3000 rpm, 10 min, 4° C.) to obtain serum. The total cholesterol (TC), triacylglycerol (TG) and low-density cholesterol (LDL-C) levels in the serum samples were assessed using automatic biochemical analyzer. Statistical analysis: GraphPad Prism 5 software was used to analyze and draw figure. Results were expressed as the mean±standard (mean±SD), and statistical analysis was performed by one-way analysis of variance (ANOVA) or student's t test. A difference with P<0.05 was considered statistically significant. Statistical significance was set at *P<0.05, **P<0.01, ***P<0.001 versus the model group.

[4] = 40° C., relative humidity 60%-80%, 10-day stability test, listed as leonurine crystal form A
[5] = dose not stated, listed as leonurine crystal form A
[6] = middle dose group 20 mg/kg/day intragastric, vs model group, listed as leonurine crystal form A

SMILES: COc1cc(C(=O)OCCCCNC(=N)N)cc(OC)c1O [crystal form A, 4-guanidino-1-butyl 4-hydroxy-3,5-dimethoxybenzoate]
- insulin sensitivity curve (blood glucose after insulin injection) (Sprague-Dawley male rats [1]; single gavage 30 mg/kg): basically coincident with the control group
- insulin sensitivity curve (blood glucose after insulin injection) (Sprague-Dawley male rats [1]; single gavage 60 mg/kg, 60 minute time point, listed as leonurine crystal form A, 60 mg/kg): reached statistical significance; also recorded: decreased significantly
- insulin sensitivity curve (blood glucose after insulin injection) (Sprague-Dawley male rats [1]; single gavage 120 mg/kg, 60 minute time point): no statistically significant difference was observed
- low-density lipoprotein (LDL-C) (rhesus monkey): decreasing
- total cholesterol (TC) (rhesus monkey): decreasing
- Crystal stability ([2]; 40° C.): remain unchanged
- Crystal stability ([2]; 40° C., listed as A): stable
- crystal transformation behavior [2, 4]: no crystal transformation behavior
- hygroscopicity (in words) [2, 4]: not obvious
- stability in accelerating experiments ([2]; 40° C./75% RH): most stable
- insulin sensitivity curve (Sprague-Dawley male rats [3]; 30 mg/kg/d for 7 days, 30 minute time point, 30 mg/kg/day): increased insulin sensitivity; also recorded: decreased significantly
- insulin sensitivity curve (Sprague-Dawley male rats [3]; 30 mg/kg/d for 7 days, 60 minute time point, 30 mg/kg/day): increased insulin sensitivity; also recorded: decreased significantly
- insulin sensitivity curve (Sprague-Dawley male rats [3]; 30 mg/kg/d for 7 days, 90 minute time point, 30 mg/kg/day): increased insulin sensitivity; also recorded: decreased significantly
- insulin sensitivity curve (Sprague-Dawley male rats [3]; 60 mg/kg/d for 7 days, 30 minute time point, 60 mg/kg/day): increased insulin sensitivity; also recorded: decreased significantly
- insulin sensitivity curve (Sprague-Dawley male rats [3]; 60 mg/kg/d for 7 days, 60 minute time point, 60 mg/kg/day): increased insulin sensitivity; also recorded: decreased significantly
- insulin sensitivity curve (Sprague-Dawley male rats [3]; 60 mg/kg/d for 7 days, 90 minute time point, 60 mg/kg/day): increased insulin sensitivity; also recorded: decreased significantly
- insulin sensitivity curve (Sprague-Dawley male rats [3]; 120 mg/kg/d for 7 days, 60 minute time point, 120 mg/kg/day): increased insulin sensitivity; also recorded: decreased significantly
- carotid plaque thickness / IMT growth induced by high fat (New Zealand rabbits; high fat diet 8 weeks, 4, 8, 16 mg/kg/day, dose-dependent effect): significantly inhibited IMT growth
- intimal-medial thickness (IMT) at the largest carotid plaque (New Zealand rabbits; high dose group 16 mg/kg/d): decrease plaque thickness
- intimal-medial thickness (IMT) at the largest carotid plaque (New Zealand rabbits; medium dose group 8 mg/kg/d): decrease plaque thickness
- serum low-density lipoprotein / low-density cholesterol (LDL-C) (ApoE knockout mice; [5]): reduce; also recorded: significantly decrease
- serum total cholesterol (TC) (ApoE knockout mice; [5]): reduce; also recorded: significantly decrease
- serum triglycerides / triacylglycerol (TG) (ApoE knockout mice; [5]): reduce; also recorded: significantly decrease
- serum total cholesterol (TC) (ApoE knockout mice; middle dose group 20 mg/kg/day intragastric, vs model group): reduced
- serum low-density cholesterol (LDL-C) (ApoE knockout mice; [6]): reduced; also recorded: decrease
- serum triacylglycerol (TG) (ApoE knockout mice; [6]): reduced; also recorded: decrease
